Results: patent publication US7183112B2, “Uses for anti-malarial therapeutic agents” (APT Pharmaceuticals, LLC, priority 1999, dated 2007)

Assays:
IL-4 = settings: Seggev J Immunol 150:62A; cited from earlier work
Ascaris-sensitized sheep = test: Airway hyperresponsiveness to carbachol (post/pre challenge PC400 ratio), Example 3; format: in vivo
Procedure: Dose Response Curves to Inhaled Carbachol: For the carbachol dose response curves, measurements of SRL were repeated immediately after inhalation of buffer and after each administration of 10 breaths of increasing concentrations of carbachol solution (0.25%, 0.5%, 1.0%, 2.0% and 4.0% w/v). To assess airway responsiveness, the cumulative carbachol dose in breath units (BU) that increased SRL 400% over the post-buffer value (i.e. PC400) was calculated from the dose response curve. One breath unit was defined as one breath of a 1% w/v carbachol solution. The same basic protocol was used for all studies in Example 3. This basic protocol consisted of first obtaining baseline dose response curves to aerosol carbachol 1–3 days prior to antigen challenge. Then, on the day of antigen challenge, values of specific lung resistance (SRL) were measured at baseline and, then, 30 min after drug or vehicle (0.9% saline) treatment. The animals were, then, challenged with Ascaris suum antigen and SRL was remeasured immediately after challenge, hourly from 1–6 h after challenge and on the half-hour from 6 ½–8 h after challenge. Measurements of SRL were obtained 24 h after challenge followed by the 24 h post challenge dose response curve. Studies differed in time of treatment, treatment dose or route of administration. […] A second control challenge was done 2 weeks after the drug trial to insure that the 4 day treatment regimen had no carry-over effect. […] A second control challenge was done 2 weeks after the drug trial to insure that the 4 day treatment regimen had no carry-over effect. […] A second; control challenge was done 2 weeks after the drug trial to insure that the 4 day treatment regimen had no carry-over effect. […] Challenges were separated by 2 weeks. […] On the 15th day, the animals were treated and 30 min later, challenged with antigen. On the following day, after determining the post challenge PC400, the animals resumed treatment for another 14 days, after which, they were challenged with antigen (day 29). The animals were then left untreated for 14 days, after which an antigen challenge was conducted (day 43) and, then, this procedure was repeated after another 2 weeks (day 57). For each series, a repeated measures analysis of variance was performed to see if there were overall differences between the historical control the drug trial and the 2 week follow-up control or, in the case of experiments described in series 4 and 5, amongst the doses and different times, respectively. If a significant overall effect was found, then a two-tailed paired t-test were used to assess pairwise differences. The variables assessed were the peak early airway response (maximum increase in SRL 0–4 h after challenge), peak late airway response (maximum increase in SRL between 5–8 h after antigen challenge, irrespective of when this increase occurred for each sheep in each trial) and on the ratio of post challenge PC400 to pre challenge PC400. (Note: a ratio close to 1 indicates no airway hyperresponsiveness, whereas, a ratio close to 0.5 indicates the development of airway hyperresponsiveness.). Peak responses were used because they are the most conservative estimate of the overall effect. Values in the text and figures are mean±se for 3 sheep.

CCN(CCO)CCCC(C)Nc1ccnc2cc(Cl)ccc12 (stereo not drawn) [HCQ, hydroxychloroquine]
effect on the actions of IL-4 (IL-4): blocks | effect on airway hyperresponsiveness (AHR) (Ascaris-sensitized sheep; aerosol 1 mg/kg twice a day for 4 days): protection | effect on antigen-induced AHR (Ascaris-sensitized sheep; aerosol 2 mg/kg once a day for 4 days): protection | effect on antigen-induced AHR (Ascaris-sensitized sheep; chronic treatment, aerosol 2 mg/kg once a day for up to 4 weeks): protection | effect on antigen-induced AHR (Ascaris-sensitized sheep; dose response, aerosol 0.2, 0.6 and 2 mg/kg once a day for 4 days): protection | effect on antigen-induced AHR (Ascaris-sensitized sheep; p.o. 1 mg/kg twice a day for 4 days): did not protect
